Data on 5 compounds can be found in ChEMBL document CHEMBL1146837, “Effects of fluorine substitution of cytosine analogues on the binding affinity to HIV-1 reverse transcriptase” (Bioorg Med Chem Lett, 2004).

The structures appear in SMILES notation.

Common to all, as to type: functional
Experiment [1] deals with Human immunodeficiency virus type 1 reverse transcriptase (Human immunodeficiency virus 1, UniProt Q72547). Kind of experiment: Equilibrium binding constant at the active site of HIV-1 reverse transcriptase.
In experiment [2] the target is Human immunodeficiency virus type 1 reverse transcriptase (Human immunodeficiency virus 1) (UniProt Q72547). Kind of experiment: Efficiency of incorporation into a DNA primer directed by a DNA template at the active site of HIV-1 reverse transcriptase.
Experiment [3] shares this target. Kind of experiment: Rate of incorporation into a DNA primer directed by a DNA template at the active site of HIV-1 reverse transcriptase.

As for `Nc1nc(=O)n([C@H]2O[C@@H](COP(=O)(O)OP(=O)(O)OP(=O)(O)O)C=C2F)cc1F`, the Kd in experiment [1] worked out at 64 µM. Moreover, in experiment [2], the Efficiency was 0.0023 µM⁻¹ s⁻¹. The Kpol in experiment [3] was 0.15 s⁻¹.

On to `Nc1ccn([C@@H]2C=C[C@H](COP(=O)(O)OP(=O)(O)OP(=O)(O)O)O2)c(=O)n1`, for which, in experiment [1], the Kd was determined as 18 µM. Further, the Efficiency in experiment [2] was determined as 0.0086 µM⁻¹ s⁻¹. In addition, the Kpol in experiment [3] came out at 0.16 s⁻¹.

The compound `Nc1ccn([C@@H]2CS[C@H](COP(=O)(O)OP(=O)(O)OP(=O)(O)O)O2)c(=O)n1` [LAMIVUDINE TRIPHOSPHATE] gave a Kd in experiment [1] of 15 µM. This compound also yielded an Efficiency in experiment [2] of 0.0013 µM⁻¹ s⁻¹. In experiment [3], this compound yielded a Kpol of 0.019 s⁻¹.

In turn, `Nc1nc(=O)n([C@@H]2C=C[C@H](COP(=O)(O)OP(=O)(O)OP(=O)(O)O)O2)cc1F` registered a Kd in experiment [1] of 31 µM. Moreover, the Efficiency in experiment [2] was 0.031 µM⁻¹ s⁻¹. Besides, the Kpol in experiment [3] worked out at 0.95 s⁻¹.

`Nc1nc(=O)n([C@@H]2CS[C@H](COP(=O)(O)OP(=O)(O)OP(=O)(O)O)O2)cc1F` [EMTRICITABINE 5'-TRIPHOSPHATE]: in experiment [1], the Kd was determined as 12 µM. Further, the Efficiency in experiment [2] was found to be 0.0033 µM⁻¹ s⁻¹. Besides, in experiment [3], the Kpol worked out at 0.039 s⁻¹.
